Measured values taken from patent US12459922B2 (Gilead Sciences, Inc., priority 2022, dated 2025).
pEC50: −log10 of the molar value.

What follows are compounds tested on endogenous cellular STAT1 (phosphorylated at Tyr701) in NCI-H1373 cells (assay: Phospho-STAT1 (Tyr701) LANCE Ultra TR-FRET Detection Assay). Settings: 48 hours, phospho-STAT1 (Tyr701) induction, read-out: NH1373 pSTAT1 EC50.
Format: cell-based

Compound	pEC50
C[C@@H](CCCn1ccc2cc(-c3ncc(C(F)(F)F)c(N)n3)c(F)cc2c1=O)Nc1cn[nH]c(=O)c1C(F)(F)F [Example 100, 6-[4-amino-5-(trifluoromethyl)pyrimidin-2-yl]-7-fluoro-2-[(4S)-4-[[6-oxo-5-(trifluoromethyl)-1H-pyridazin-4-yl]amino]pentyl]isoquinolin-1-one]	8.36

Same assay, conditions: Homo sapiens, NCI-H1373, 48 h, phospho-STAT1 (Tyr701) induction, read-out: NH1373 pSTAT1 EC50

Compound	pEC50
O=c1[nH]ncc(N[C@@H](CO)CCCn2cnc3cc(-c4ncc(C(F)(F)F)cn4)c(F)cc3c2=O)c1C(F)(F)F [Example 164, 6-fluoro-3-[(4R)-5-hydroxy-4-[[6-oxo-5-(trifluoromethyl)-1H-pyridazin-4-yl]amino]pentyl]-7-[5-(trifluoromethyl)pyrimidin-2-yl]quinazolin-4-one]	6.66
O=c1[nH]ncc(O[C@H]2CCC[C@@H](Cn3ccc4cc(-c5ncc(C(F)F)cn5)c(F)cc4c3=O)C2)c1C(F)(F)F [Example 456, 6-(5-(difluoromethyl)pyrimidin-2-yl)-7-fluoro-2-(((1R,3S)-3-((6-oxo-5-(trifluoromethyl)-1,6-dihydropyridazin-4-yl)oxy)cyclohexyl)methyl)isoquinolin-1(2H)-one]	7.32
O=c1[nH]ncc(N[C@H]2CC[C@@H](Cn3ccc4cc(-c5ncc(C(F)(F)F)cn5)c(F)cc4c3=O)C2)c1C(F)(F)F [Example 443, 7-fluoro-2-(((1R,3S)-3-((6-oxo-5-(trifluoromethyl)-1,6-dihydropyridazin-4-yl)amino)cyclopentyl)methyl)-6-(5-(trifluoromethyl)pyrimidin-2-yl)isoquinolin-1(2H)-one]	6.56
Cc1nnc([C@@H](CCCn2ccc3cc(-c4ncc(C(F)(F)F)cn4)c(F)cc3c2=O)Nc2cn[nH]c(=O)c2C(F)(F)F)o1 [Example 169, 7-fluoro-2-[(4R)-4-(5-methyl-1,3,4-oxadiazol-2-yl)-4-[[6-oxo-5-(trifluoromethyl)-1H-pyridazin-4-yl]amino]butyl]-6-[5-(trifluoromethyl)pyrimidin-2-yl]isoquinolin-1-one]	7.21
C[C@@H](CCCn1ccc2cc(-c3ccc(C(F)(F)F)cn3)ccc2c1=O)Nc1cn[nH]c(=O)c1C(F)(F)F (single isomer, unassigned) [Example 3]	6.97
O=c1[nH]ncc(N[C@H](CCCn2ccc3cc(-c4ccc(C(F)(F)F)cn4)c(F)cc3c2=O)COC(F)F)c1C(F)(F)F [Example 399, (R)-2-(5-(difluoromethoxy)-4-((6-oxo-5-(trifluoromethyl)-1,6-dihydropyridazin-4-yl)amino)pentyl)-7-fluoro-6-(5-(trifluoromethyl)pyridin-2-yl)isoquinolin-1(2H)-one]	8.53
O=c1[nH]ncc(N[C@H]2CCC[C@@H](Cn3ccc4cc(-c5ncc(C(F)F)cn5)c(F)cc4c3=O)C2)c1C(F)(F)F [Example 226, 6-[5-(difluoromethyl)pyrimidin-2-yl]-7-fluoro-2-[[(1R,3S)-3-[[6-oxo-5-(trifluoromethyl)-1H-pyridazin-4-yl]amino]cyclohexyl]methyl]isoquinolin-1-one]	8.27
COc1cnc(-c2cc3ccn(CCC[C@H](C)Nc4cn[nH]c(=O)c4C(F)(F)F)c(=O)c3cc2F)nc1N1CC(O)C1 [Example 207]	6.80
Nc1nc(-c2cc3ccn(CCC[C@H](COC(F)F)Nc4cn[nH]c(=O)c4C(F)(F)F)c(=O)c3c(F)c2F)ncc1C(F)(F)F [Example 389, (R)-6-(4-amino-5-(trifluoromethyl)pyrimidin-2-yl)-2-(5-(difluoromethoxy)-4-((6-oxo-5-(trifluoromethyl)-1,6-dihydropyridazin-4-yl)amino)pentyl)-7,8-difluoroisoquinolin-1(2H)-one]	8.29
C[C@@H](CCCn1ccc2cc(-c3nc(N)c4c(n3)C(C)(C)OC4)c(F)cc2c1=O)Nc1cn[nH]c(=O)c1C(F)(F)F [Example 358, (S)-6-(4-amino-7,7-dimethyl-5,7-dihydrofuro[3,4-d]pyrimidin-2-yl)-7-fluoro-2-(4-((6-oxo-5-(trifluoromethyl)-1,6-dihydropyridazin-4-yl)amino)pentyl)isoquinolin-1(2H)-one]	5.88
C[C@@H](CCCn1ccc2cc(-c3ncc(C#N)c(N)n3)c(F)cc2c1=O)Nc1cn[nH]c(=O)c1C(F)(F)F [Example 101, 4-amino-2-[7-fluoro-1-oxo-2-[(4S)-4-[[6-oxo-5-(trifluoromethyl)-1H-pyridazin-4-yl]amino]pentyl]-6-isoquinolyl]pyrimidine-5-carbonitrile]	7.90
C[C@@H](CCCn1cnc2cc(-c3ncc(C(F)F)cn3)c(F)cc2c1=O)Nc1cn[nH]c(=O)c1C(F)(F)F [Example 82, (S)-7-(5-(difluoromethyl)pyrimidin-2-yl)-6-fluoro-3-(4-((6-oxo-5-(trifluoromethyl)-1,6-dihydropyridazin-4-yl)amino)pentyl)quinazolin-4(3H)-one]	7.20
CCOc1cnc(-c2cc3ccn(CCC[C@H](C)Nc4cn[nH]c(=O)c4C(F)(F)F)c(=O)c3cc2F)nc1N [Example 192, (S)-6-(4-amino-5-ethoxypyrimidin-2-yl)-7-fluoro-2-(4-((6-oxo-5-(trifluoromethyl)-1,6-dihydropyridazin-4-yl)amino)pentyl)isoquinolin-1(2H)-one]	8.65
Nc1nc(-c2cc3ccn(CCC[C@H](CO)Nc4cn[nH]c(=O)c4C(F)(F)F)c(=O)c3cc2F)ccc1C(F)(F)F [Example 167, 6-[6-amino-5-(trifluoromethyl)pyridin-2-yl]-7-fluoro-2-[(4R)-5-hydroxy-4-[[6-oxo-5-(trifluoromethyl)-1H-pyridazin-4-yl]amino]pentyl]isoquinolin-1-one]	6.99
Nc1nc(-c2cc3ccn(CCC[C@H](COC(F)F)Nc4cn[nH]c(=O)c4C(F)(F)F)c(=O)c3cc2F)cnc1C(F)(F)F [Example 416, (R)-6-(6-amino-5-(trifluoromethyl)pyrazin-2-yl)-2-(5-(difluoromethoxy)-4-((6-oxo-5-(trifluoromethyl)-1,6-dihydropyridazin-4-yl)amino)pentyl)-7-fluoroisoquinolin-1(2H)-one]	8.17
C[C@@H](CCCn1ccc2cc(-c3nc(N)c4c(n3)COC4)c(F)cc2c1=O)Nc1cn[nH]c(=O)c1C(F)(F)F [Example 357, (S)-6-(4-amino-5,7-dihydrofuro[3,4-d]pyrimidin-2-yl)-7-fluoro-2-(4-((6-oxo-5-(trifluoromethyl)-1,6-dihydropyridazin-4-yl)amino)pentyl)isoquinolin-1(2H)-one]	6.85
COc1cnc(-c2cc3ccn(CCC[C@H](C)Nc4cn[nH]c(=O)c4C(F)(F)F)c(=O)c3cc2F)nc1N1CCC1 [Example 186, (S)-6-(4-(azetidin-1-yl)-5-methoxypyrimidin-2-yl)-7-fluoro-2-(4-((6-oxo-5-(trifluoromethyl)-1,6-dihydropyridazin-4-yl)amino)pentyl)isoquinolin-1(2H)-one]	7.18
O=c1[nH]ncc(N[C@H]2CCC[C@@H](Cn3cc(F)c4cc(-c5ncc(C(F)(F)F)cn5)c(F)cc4c3=O)C2)c1C(F)(F)F [Example 481, 4,7-difluoro-2-(((1R,3S)-3-((6-oxo-5-(trifluoromethyl)-1,6-dihydropyridazin-4-yl)amino)cyclohexyl)methyl)-6-(5-(trifluoromethyl)pyrimidin-2-yl)isoquinolin-1(2H)-one]	8.49
Nc1nc(-c2cc3ccn(C[C@@H]4COC[C@H](Nc5cn[nH]c(=O)c5C(F)(F)F)C4)c(=O)c3cc2F)ncc1C(F)(F)F [Example 230, 6-(4-amino-5-(trifluoromethyl)pyrimidin-2-yl)-7-fluoro-2-(((3R,5R)-5-((6-oxo-5-(trifluoromethyl)-1,6-dihydropyridazin-4-yl)amino)tetrahydro-2H-pyran-3-yl)methyl)isoquinolin-1(2H)-one]	6.94
C[C@@H](CCCn1ccc2cc(-c3ncc4cc(F)ccc4n3)c(F)cc2c1=O)Nc1cn[nH]c(=O)c1C(F)(F)F [Example 322, (S)-7-fluoro-6-(6-fluoroquinazolin-2-yl)-2-(4-((6-oxo-5-(trifluoromethyl)-1,6-dihydropyridazin-4-yl)amino)pentyl)isoquinolin-1(2H)-one]	8.25
CNc1nc(-c2cc3ccn(CCC[C@H](C)Nc4cn[nH]c(=O)c4C(F)(F)F)c(=O)c3cc2F)ncc1OC [Example 214]	7.75
O=c1[nH]ncc(N[C@H](CCCn2cnc3cc(-c4cnc(OC(F)F)cn4)c(F)cc3c2=O)COC(F)F)c1C(F)(F)F [Example 373, (R)-3-(5-(difluoromethoxy)-4-((6-oxo-5-(trifluoromethyl)-1,6-dihydropyridazin-4-yl)amino)pentyl)-7-(5-(difluoromethoxy)pyrazin-2-yl)-6-fluoroquinazolin-4(3H)-one]	7.78
CC(C)(O)c1cnc(-c2cc3ccn(C[C@@H]4CCC[C@H](Nc5cn[nH]c(=O)c5C(F)(F)F)C4)c(=O)c3cc2F)cn1 [Example 267, 7-fluoro-6-(5-(2-hydroxypropan-2-yl)pyrazin-2-yl)-2-(((1R,3S)-3-((6-oxo-5-(trifluoromethyl)-1,6-dihydropyridazin-4-yl)amino)cyclohexyl)methyl)isoquinolin-1(2H)-one]	7.10
O=c1[nH]ncc(N[C@H]2CCC[C@@H](Cn3ccc4cc(-c5cnc(C(F)F)cn5)c(F)c(F)c4c3=O)C2)c1C(F)(F)F [Example 253, 6-(5-(difluoromethyl)pyrazin-2-yl)-7,8-difluoro-2-(((1R,3S)-3-((6-oxo-5-(trifluoromethyl)-1,6-dihydropyridazin-4-yl)amino)cyclohexyl)methyl)isoquinolin-1(2H)-one]	8.03
O=c1[nH]ncc(N[C@H]2CCCC[C@@H]2CCn2ccc3cc(-c4ncc(C(F)(F)F)cn4)c(F)cc3c2=O)c1C(F)(F)F [Example 450, 7-fluoro-2-[2-[(1R,2S)-2-[[6-oxo-5-(trifluoromethyl)-1H-pyridazin-4-yl]amino]cyclohexyl]ethyl]-6-[5-(trifluoromethyl)pyrimidin-2-yl]isoquinolin-1-one]	7.94
